Where “and” joins values, the source holds several entries; their conditions need not be identical. Equal entries are not always repeated. Calls of active or inactive are those of the source.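 The calls were made as follows: active = fitted curve reaches a 40% rise in fluorescent cells at or below the top valid dose; inactive = opposite-direction effect, or the rest.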
Tested on: mTEFS fibroblasts autofluorescence, GFP-channel imaging, 3 days
Assay: compound fluorescence in GFP channel, mTEFS cells – imaging, mTEFS fibroblasts, cherry-pick, artefact control for X-chromosome reactivation project, dose response (AID 743396)
Conditions: cells pretreated with 5-aza-dC

Row | SMILES | AC40
1 | COc1ccccc1N1N=C(c2ccc([N+](=O)[O-])cc2)CC1c1ccccc1 (configuration not stated) | 5.77 µM
2 | CCN1CCc2c(sc(NC(=O)c3ccc(S(=O)(=O)N(CC)c4ccccc4)cc3)c2C(N)=O)C1 | 6.59 µM
3 | Cc1cc(N/N=C/c2ccc([N+](=O)[O-])o2)nc2ccccc12 | 13.8 µM
4 | C/C(CC(=O)Nc1ccc(C)c(Cl)c1)=N\NC(=O)Cc1ccccc1 | 18.1 µM
5 | Cc1oc2ccc(NS(=O)(=O)c3cccc4cccnc34)cc2c1C(=O)OC(C)C | 4.77 µM
6 | C[C@H]1CN([C@@H](C)CO)S(=O)(=O)c2ccc(Br)cc2O[C@H]1CN(C)C(=O)c1cccnc1 | > 6.8 µM (inactive)
7 | COc1cc2c3nnc(-c4ccc(F)cc4)c-3cn(Cc3ccccc3)c2cc1OC | 3.67 µM
8 | CCCCN(C)C1=CC2=CC(=C(C#N)C#N)CCC2CC1 (configuration not stated) | 3.44 µM
9 | CCN1/C(=C/c2ccc3cc(C)ccc3[n+]2CC)Sc2ccccc21 | 0.395 µM
10 | COC1=CC(=O)c2nc(Cl)ccc2C1=O | 18.5 µM
11 | COc1ccc(-[n+]2c(C)cc(/C=C3\Sc4ccccc4N3C)cc2C)cc1 | 1.58 µM
12 | O=C(NCc1ccccc1)c1cccc2c1C(=O)c1ccc(/C=C/c3ccccc3)cc1S2(=O)=O | 15 µM
13 | O=C(N/N=C\c1c(O)ccc2ccccc12)c1ccc(S(=O)(=O)N2CCCCC2)cc1 | 19.2 µM
14 | Cc1ccc(-c2cn3nc(-c4ccccc4)c(-c4ccccc4)nc3n2)cc1 | 7.88 µM
15 | CCCCCC[n+]1ccccc1/C=C/c1ccc(N(C)C)cc1 | > 19.5 µM (inactive)
16 | COc1ccc(/C=C/C(=O)c2ccc([N+](=O)[O-])o2)cc1OC | > 19.5 µM (inactive)
17 | O=[N+]([O-])c1ccc(C2=NN(c3ccccc3)C(c3ccco3)C2)cc1 (configuration not stated) | 2.59 µM
18 | Cc1ccc(NC(=O)/C=C/c2ccc([N+](=O)[O-])s2)c(C)c1 | 7.81 µM
19 | N#C/C(=C\c1ccc(N2CCCCC2)o1)C(=O)Nc1cccc(Br)c1 | 0.919 µM
20 | Oc1ccc(/C=N/Nc2ccnc3cc(Cl)ccc23)c(O)c1 | > 19.5 µM (inactive)
21 | COc1ccc(C(=O)c2sc3nc(C)cc(-c4cccs4)c3c2N)cc1 | 14.5 µM
22 | N#Cc1ccccc1Cn1cc(/C=N/Nc2ccc([N+](=O)[O-])cn2)c2ccccc21 | 16.1 µM
23 | CCN1/C(=C\c2ccc3ccccc3[n+]2CC)Sc2cc(C)ccc21 | 0.582 µM

Row | SMILES | AC40
24 | CCN(CC)c1ccc2cc(C(=O)c3cccs3)c(=O)oc2c1 | 11.3 µM
25 | CC(=O)Nc1cc2c3c(cccc3c1)-c1ccccc1-2 | 2.19 µM
26 | CCN(CC)C1=CC2=CC(=C(C#N)C#N)CCC2CC1 (configuration not stated) | > 19.5 µM (inactive)
27 | CCN1/C(=C/c2ccc3cc(C)cc(C)c3[n+]2CC)Sc2cc(C)ccc21 | 10.4 µM
28 | Cc1cccc2cc3c(N)c(C(=O)N4CCc5ccccc54)sc3nc12 | 10.5 µM
29 | COC(=O)C1=C(C)NC(C)=C(C(=O)OC)C1C(=O)OCC(=O)c1ccc(F)cc1 | > 19.5 µM (inactive)
30 | COc1ccc(Cn2cc3c(-c4ccc(F)cc4)nnc-3c3cc(OC)c(OC)cc32)cc1 | 6.18 µM
31 | CC(C)CCN1C(=O)c2cccc3c(N)ccc(c23)C1=O | 5.86 µM
32 | Nc1c(C(=O)Nc2ccc(S(=O)(=O)N3CCCC3)cc2)sc2nc3cc4c(cc3cc12)CCC4 | 10.6 µM
33 | Nc1c(Br)cc2c3c(cccc13)-c1ccccc1-2 | > 19.5 µM (inactive)
34 | CCOC(=O)/C(=C/C=C1\Sc2cc(C)c(C)cc2N1CC)C(C)=O | 12.5 µM
35 | CCOC(=O)/C=c1\s/c(=C\c2ccc3cc(OC)ccc3c2)c(=O)n1CC(=O)NCc1ccc2c(c1)OCO2 | 4.43 µM
36 | COc1ccccc1-[n+]1c(C)cc(/C=C2\Sc3ccccc3N2C)cc1C | 3.52 µM
37 | CC(=O)Oc1cccc(N2C(=O)c3cccc4c([N+](=O)[O-])ccc(c34)C2=O)c1 | > 19.5 µM (inactive)
38 | N#CC(C#N)=C1C=C2C=C(N3CCCCCC3)CCC2CC1 (configuration not stated) | 6.6 µM
39 | NC(=O)c1c(NC(=O)c2ccccc2)sc2c1CCN(Cc1ccccc1)C2 | > 19.5 µM (inactive)
40 | CC(NC(=O)/C(C#N)=C/c1ccc([N+](=O)[O-])o1)c1ccccc1 (configuration not stated) | > 19.5 µM (inactive)
41 | Cc1cccc(-c2cccc3[nH]c4c(c23)CCN2C(=O)[C@H]3[C@H](C)ON(C)[C@H]3C[C@@H]42)c1 | 14.7 µM
42 | COc1cc2c3nnc(-c4ccccc4)c-3cn(Cc3ccccc3F)c2cc1OC | 4.02 µM
43 | C[n+]1c2cc(N)ccc2cc2ccc(N)cc21 | 0.522 µM and 0.378 µM
44 | CCCCNc1ccc2c3c(cccc13)C(=O)N(CCCC)C2=O | 4.11 µM
45 | CN1/C(=C/C=C(C#N)C#N)C(C)(C)c2ccccc21 | 19.4 µM
46 | Nc1c(C(=O)c2cccs2)sc2nsc(SCCN3CCCCC3)c12 | 2.03 µM

Row | SMILES | AC40
47 | O=C(NC1CCCC1)c1cccc2c1C(=O)c1ccc(/C=C/c3ccccc3)cc1S2(=O)=O | > 19.5 µM (inactive)
48 | CN(C)S(=O)(=O)c1ccc2c(c1)/C(=C/c1cc3c([nH]1)CCCC3)C(=O)N2 | 3.17 µM
49 | CCN(CC)c1ccc(/C=C/c2cc(-c3ccccc3)c3ccccc3n2)cc1 | 12.8 µM
50 | COc1cc(N2CCCC2)c(OC)cc1/C=C1/NC(=S)NC1=O | > 19.5 µM (inactive)
51 | c1ccc(-c2cnn3c(-c4ccccc4)c(-c4ccccc4)nc3n2)cc1 | 2.58 µM
52 | CN1CCc2c(sc(NC(=O)c3ccc(S(=O)(=O)N4CCc5ccccc54)cc3)c2C(N)=O)C1 | 18 µM
53 | N#C/C(=C/c1ccc(-c2ccc(S(N)(=O)=O)cc2)o1)c1nc2ccccc2s1 | 2.25 µM
54 | O=[N+]([O-])c1ccc(N2N=C(c3ccccc3)CC2c2ccccc2O)cc1 (configuration not stated) | 14.1 µM
55 | CN(C)CCCN1C(=O)c2cccc3c([N+](=O)[O-])ccc(c23)C1=O | > 19.5 µM (inactive)
56 | Cn1cc(C2=C(c3ccc(Cl)cc3Cl)C(=O)NC2=O)c2ccccc21 | 12.7 µM
57 | CC(=NNc1nc2ccccc2o1)c1cc2ccccc2cn1 | 8.99 µM
58 | COc1ccc2nc(C)cc(NCc3ccc(F)cc3)c2c1 | 4.85 µM
59 | O=[N+]([O-])c1ccc(N/N=C/c2ccc[nH]2)cc1 | > 19.5 µM (inactive)
60 | COC1=CC(=O)c2c(ccc3ncnc(N)c23)C1=O | > 19.5 µM (inactive)
61 | CC(C)(C)NC(=S)N/N=C\c1ccc(-c2ccc([N+](=O)[O-])cc2)o1 | 7.84 µM
62 | Cc1cccc(NC(=O)/C=C/c2ccc([N+](=O)[O-])s2)c1 | 3.68 µM
63 | CC[n+]1c(/C=C/C=C/N(C(C)=O)c2ccccc2)sc2cc(OC)ccc21 | 2.73 µM
64 | CCN(CC)c1ccc2cc(-c3nc(-c4ccc(OC)cc4)cs3)c(=O)oc2c1 | 0.0781 µM
65 | COC1C(CO)OC(n2c3c(Cl)cccc3c3c4c(c5c6cccc(Cl)c6[nH]c5c32)C(=O)NC4=O)C(O)C1O (configuration not stated) | > 19.5 µM (inactive)
66 | Cn1c(=O)[nH]c(=O)c2c1nc(SCCN1CCOCC1)n2CCCc1ccccc1 | 10.9 µM
67 | COc1cccc(C(=O)c2c(-c3ccccc3)ncc3cc(OC)c(OC)cc23)c1 | 19.4 µM

From PubChem BioAssay AID743396 (Broad Institute, 2014)
